Assay results published in patent US9242928B2, “Compound, kinesin spindle protein inhibitor, and application thereof” (FUJITSU LIMITED, priority 2010, dated 2016).
Values belong to the molecule of their own block, whether it stands above or below them.

Target: T1, human KSP motor domain (Uniprot P52732, residues 1-387) (Homo sapiens, UniProt P52732)
T1 construct: human KSP motor domain (Uniprot P52732, residues 1-387); His6; made in house; host or cells: E. coli BL21 Star (DE3)
T1 sequence (P52732 1-387): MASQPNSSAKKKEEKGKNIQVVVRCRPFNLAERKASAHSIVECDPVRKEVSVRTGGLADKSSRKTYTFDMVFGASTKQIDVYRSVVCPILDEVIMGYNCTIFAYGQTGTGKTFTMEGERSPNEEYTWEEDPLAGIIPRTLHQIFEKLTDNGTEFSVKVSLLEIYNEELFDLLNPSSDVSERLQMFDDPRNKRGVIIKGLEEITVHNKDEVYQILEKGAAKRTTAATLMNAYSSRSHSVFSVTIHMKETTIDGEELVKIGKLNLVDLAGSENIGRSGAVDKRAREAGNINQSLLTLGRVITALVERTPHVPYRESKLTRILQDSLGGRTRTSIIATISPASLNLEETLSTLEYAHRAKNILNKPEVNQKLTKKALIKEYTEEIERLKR
Assay: Inhibitory activity against kinesin spindle protein (microtubule-stimulated ATPase, quinaldine red Pi detection, absorbance at 525 nm)
Type: biochemical
Conditions: 30 nM kinesin spindle protein, 1 mM ATP, 37° C., 20 min
Experimental: Each of the compounds represented by Structural Formulas (1) to (4) was measured for inhibitory activity against a kinesin spindle protein by the following method referring to the methods described in Elizabeth B. Cogan et al., Analytical Biochemistry, 1999, 271, pp. 29-35 and Keith W. Rickert et al., Archives of Biochemistry and Biophysics, 2008, 469, pp. 220-231.
The human KSP motor domain (Uniprot P52732, residues 1-387) was cloned into the pRSETa vector (product of Invitrogen Co., Ltd) and expressed in E. coli BL21 Star (DE3) (product of Invitrogen Co., Ltd) with His6 tag for purification.
Each of the compounds represented by Structural Formulas (1) to (4) was prepared in 100% by mass DMSO (dimethylsulfoxide) at 100-fold concentration (100×). Then, the resulting mixture was diluted with 1.00% by mass DMSO to each of 0.001 mM, 0.003 mM, 0.01 mM, 0.03 mM, 0.1 mM, 0.3 mM, 1 mM, 3 mM, 10 mM and 30 mM.
A reaction mixture having a formulation described in the following Table 1 was prepared. Specifically, 28.5 μL of water, 1 μL ([…]) of the above-purified kinesin spindle protein, 5 μL of a 10× reaction buffer (150 mM PIPES (1,4-piperazine ethanesulfonic acid) (pH 7.0), 10 mM magnesium chloride, 10 mM EGTA (glycol ether diamine tetraacetate)), 10 μL of 5× microtubules solution (330 μg/mL microtubules, 15 mM PIPES (pH 7.0), 1 mM magnesium chloride, 10 μM Taxol) and 0.5 μL of the above-prepared 100× compound (the compound represented by Structural Formula (1), (2), (3) or (4)) were mixed together to prepare 45 μL of a reaction mixture, which was incubated at 37° C. for 10 min. Then, 5 μL of a 100×ATP solution (10 mM ATP, 10 mM PIPES (pH 7.0)) was added to the reaction mixture to initiate the reaction. Immediately after that, the reaction mixture was incubated at 37° C. for 20 min. […]
After the reaction, 150 μL of Quench C buffer (the formulation of which is given below) was added the reaction mixture to terminate the reaction, followed by incubating at room temperature for 5 min. Then, the reaction mixture was measured for absorbance at 525 nm with a microplate reader (SpectraMax, product of Molecular Devices Co., Ltd.). […]
The kinesin spindle protein decomposes ATP into ADP and Pi (phosphoric acid). […] Thus, the amount of the formed Pi can be measured by measuring the absorbance at 525 nm. With the absorbance at 525 nm of the high control (the amount of the formed Pi) being 100, comparing the absorbance of the high control with absorbance of test groups to which the above compounds have been added can determine whether the activity of the kinesin spindle protein is inhibited.
That is, the inhibitory rate of the activity of the kinesin spindle protein can be calculated from the following calculation formula. […]

Inhibitory rate (%) (compound concentration 100 μM): 79.8%
Structure (SMILES): CC1C=Cc2cc(N(CC(=O)N(C)C)Cc3ccccc3)ccc21 (stereo not shown) [Structural Formula (4)]

Inhibitory rate (%) (compound concentration 39 μM): 50%
Structure (SMILES): CCN(CC)C(=O)CN(Cc1ccccc1)c1ccc2c(c1)C=CC2C (stereo not shown) [Structural Formula (3)]

Inhibitory rate (%) (compound concentration 88 μM): 50%
Structure (SMILES): CCN(CC)C(=O)CN(Cc1ccccc1)c1ccc2c(c1F)CCC2=O [Structural Formula (2), 2-(benzyl(4-fluoro-1-oxo-2,3-dihydro-1H-inden-5-yl)amino)-N,N-diethylacetamide]

Inhibitory rate (%) (compound concentration 10 μM): 44.5%
Structure (SMILES): CCN(CC)C(=O)CN(Cc1ccccc1)c1ccc2c(c1F)C=CC2(C)C [Structural Formula (1)]
